For 5 molecules, IC50 results are on record in patent US8399486B2, “Benzenesulfonyl compounds and the use thereof” (Purdue Pharma L.P., priority 2007, dated 2013).

In experiment [1] the target is T1, N-type calcium channel (NTCC) (Homo sapiens, UniProt Q00975).
T1 construct: endogenous in cells; host or cells: IMR32 cells (ATCC), differentiated with dibutyryl cAMP and bromodeoxyuridine
The experiment can be described thus: FLIPR calcium mobilization assay for N-type calcium channel. It is filed as cell-based. Conditions: calcium mobilization in vitro assay, differentiated IMR32 cells, 90 mM KCl, 5 μM nitrendipine. The protocol:
Cell maintenance and differentiation. Unless noted otherwise, cell culture reagents were purchased from Mediatech of Herndon, Md. IMR32 cells (American Type Culture Collection, ATCC, Manassas, Va.) were routinely cultured in growth medium consisting of minimum essential medium containing 10% fetal bovine serum (FBS, Hyclone, Logan, Utah), 100 U/mL penicillin, 100 μg/mL streptomycin, 2 mM L-glutamine, 1 mM sodium pyruvate, and 1×MEM non-essential amino acids. 80-90% confluent flasks of cells were differentiated using the following differentiation medium: Growth medium plus 1 mM dibutyryl cyclic AMP (Sigma, St. Louis, Mo.), and 2.5 μM bromodeoxyuridine (Sigma). Cells were differentiated for 8 days by replacing differentiation medium every 2-3 days.
FLIPR Calcium Mobilization Assay for N-type Calcium Channel. One day prior to performing this assay, differentiated IMR32 cells were treated with 1× CellStripper, and seeded on poly-D-lysine-coated 96-well clear-bottom black plates (Becton Dickinson, Franklin Lakes, N.J.) at 200,000 cells/well. On the day of the assay, the cell plates were washed with IMR32 buffer (127 mM NaCl, 1 mM KCl, 2 mM MgCl2, 700 μM NaH2PO4, 5 mM CaCl2, 5 mM NaHCO3, 8 mM HEPES, 10 mM glucose, pH 7.4), then pre-stimulated with KCl and loaded as follows: 0.05 mL of IMR32 buffer, 0.05 mL of each compound tested diluted in IMR32 buffer containing 20 μM nitrendipine (Sigma), and 0.1 mL KCl dissolved in IMR32 buffer, plus Fluo-4 were added (3 μM final concentration, Molecular Probes, Eugene, Oreg.). Final test compound concentrations ranged from about 846 μM to about 17 μM, final nitrendipine concentration was 5 μM, and final KCl concentration was 90 mM. After 1 hour, the cells were washed twice with 0.05 mL of each compound tested in nitrendipine-containing IMR32 buffer (no KCl or Fluo-4), and then replaced with 0.1 mL of each compound tested in nitrendipine-containing IMR32 buffer. Plates were then transferred to a Fluorimetric Imaging Plate Reader (FLIPR^96, Molecular Devices, Inc., Sunnyvale, Calif.) for assay. The FLIPR measured basal Fluo-4 fluorescence for 315 seconds (i.e., 5 minutes and 15 seconds), then added 0.1 mL KCl agonist dissolved in IMR32 buffer and measured fluorescence for another 45 seconds. Final test compound concentrations on the cells after FLIPR read ranged from about 846 pM to about 17 μM, final nitrendipine concentration was 5 μM, and final KCl concentration was 90 mM. Data were collected over the entire time course and analyzed using Excel, Graph Pad Prism (version 3.02, Graph Pad, San Diego, Calif.), or an in-house non-linear regression analysis software.

The target in experiment [2] is T2, L-type calcium channel (LTCC) (Rattus norvegicus, UniProt P22002).
T2 construct: expressed in transfected cells; pcDNA6.2DEST α1c, pcDNA3.2DEST β1, pcDNA3.1-Zeo α2δ)
The experiment can be described thus: FLIPR calcium mobilization assay for L-type calcium channel. Conditions: calcium mobilization in vitro assay, HEK293 cells expressing recombinant rat LTCC subunits (α1c, α2δ, β1), 90 mM KCl. The format is cell-based. The protocol: Recombinant human embryonal kidney cells (HEK293, ATCC) stably transfected with either N-type calcium channel (NTCC) subunits (α1b, α2δ, and β3) or L-type calcium channel (LTCC) subunits (α1c, α2δ, and β1) were routinely cultured in growth medium consisting of Dulbecco's Modified Eagles Medium containing 10% FBS, 100 U/mL penicillin, 100 μg/mL streptomycin, 4 mM L-glutamine, 500 μg/mL geneticin (G418), 20 μg/mL Blasticidin S (InVivogen, San Diego, Calif.) and 500 μg/mL zeocin (InVivogen).
FLIPR Calcium Mobilization Assay for L-type Calcium Channel. One day prior to performing this assay, HEK293 cells stably expressing recombinant rat L-type calcium channel (LTCC) subunits (α1c, α2δ, and β1) were trypsinized, then seeded on poly-D-lysine-coated 96-well clear-bottom black plates (Becton Dickinson, Franklin Lakes, N.J.) at 75,000 cells/well. On the day of the assay, the plates were washed with LTCC wash buffer (127 mM NaCl, 2 mM MgCl2, 700 μM NaH2PO4, 5 mM CaCl2, 5 mM NaHCO3, 8 mM HEPES, 10 mM glucose, pH 7.4), then loaded with 0.1 mL of LTCC wash buffer containing Fluo-4 (3 μM final concentration, Molecular Probes, Eugene, Oreg.). After 1 hour, the cells were washed with 0.1 mL LTCC wash buffer and resuspended in 0.05 mL LTCC assay buffer (same composition as LTCC wash buffer). Plates were then transferred to a FLIPR^96 for assay. The FLIPR measured basal Fluo-4 fluorescence for 15 seconds, then added 0.05 mL of each compound tested diluted in LTCC assay buffer at final concentrations ranging from about 846 pM to about 17 μM. Fluo-4 fluorescence was then measured for 5 minutes. 0.1 mL KCl agonist dissolved in LTCC assay buffer was then added to the cells to produce a final concentration of 90 mM KCl, and fluorescence was measured for another 45 seconds. Data were collected over the entire time course and analyzed using Excel, Graph Pad Prism, or an in-house regression analysis software.
L-type Recombinant Cell Line Development. L-type calcium channel expressing HEK-293 cells were created in two stages. Stage 1 was created as follows. The rat α1c, and β1 cDNA expression constructs (2.5 μg each) were co-transfected into human embryonic kidney (HEK-293) cells by Lipofectamine Plus reagent (Invitrogen), as per manufacturer's instructions. 24 hours later, cells were split in limiting dilution into multiple 96-well plates in selection media containing 20 μg/mL blasticidin and 500 μg/mL geneticin, and incubated for 3 weeks at 37° C., 5% CO2, 95% humidity. […] The FLIPR measured basal Fluo-4 fluorescence for 315 seconds, then added 0.1 mL KCl agonist dissolved in LTCC buffer and measured fluorescence for another 45 seconds. […] Data were collected over the entire time course and analyzed using Excel, Graph Pad Prism, or Activity Base software. […]
For orientation: Calcium flux is commonly read through the fluorescence of an indicator in the cells.

T1 sequence (Q00975 whole entry): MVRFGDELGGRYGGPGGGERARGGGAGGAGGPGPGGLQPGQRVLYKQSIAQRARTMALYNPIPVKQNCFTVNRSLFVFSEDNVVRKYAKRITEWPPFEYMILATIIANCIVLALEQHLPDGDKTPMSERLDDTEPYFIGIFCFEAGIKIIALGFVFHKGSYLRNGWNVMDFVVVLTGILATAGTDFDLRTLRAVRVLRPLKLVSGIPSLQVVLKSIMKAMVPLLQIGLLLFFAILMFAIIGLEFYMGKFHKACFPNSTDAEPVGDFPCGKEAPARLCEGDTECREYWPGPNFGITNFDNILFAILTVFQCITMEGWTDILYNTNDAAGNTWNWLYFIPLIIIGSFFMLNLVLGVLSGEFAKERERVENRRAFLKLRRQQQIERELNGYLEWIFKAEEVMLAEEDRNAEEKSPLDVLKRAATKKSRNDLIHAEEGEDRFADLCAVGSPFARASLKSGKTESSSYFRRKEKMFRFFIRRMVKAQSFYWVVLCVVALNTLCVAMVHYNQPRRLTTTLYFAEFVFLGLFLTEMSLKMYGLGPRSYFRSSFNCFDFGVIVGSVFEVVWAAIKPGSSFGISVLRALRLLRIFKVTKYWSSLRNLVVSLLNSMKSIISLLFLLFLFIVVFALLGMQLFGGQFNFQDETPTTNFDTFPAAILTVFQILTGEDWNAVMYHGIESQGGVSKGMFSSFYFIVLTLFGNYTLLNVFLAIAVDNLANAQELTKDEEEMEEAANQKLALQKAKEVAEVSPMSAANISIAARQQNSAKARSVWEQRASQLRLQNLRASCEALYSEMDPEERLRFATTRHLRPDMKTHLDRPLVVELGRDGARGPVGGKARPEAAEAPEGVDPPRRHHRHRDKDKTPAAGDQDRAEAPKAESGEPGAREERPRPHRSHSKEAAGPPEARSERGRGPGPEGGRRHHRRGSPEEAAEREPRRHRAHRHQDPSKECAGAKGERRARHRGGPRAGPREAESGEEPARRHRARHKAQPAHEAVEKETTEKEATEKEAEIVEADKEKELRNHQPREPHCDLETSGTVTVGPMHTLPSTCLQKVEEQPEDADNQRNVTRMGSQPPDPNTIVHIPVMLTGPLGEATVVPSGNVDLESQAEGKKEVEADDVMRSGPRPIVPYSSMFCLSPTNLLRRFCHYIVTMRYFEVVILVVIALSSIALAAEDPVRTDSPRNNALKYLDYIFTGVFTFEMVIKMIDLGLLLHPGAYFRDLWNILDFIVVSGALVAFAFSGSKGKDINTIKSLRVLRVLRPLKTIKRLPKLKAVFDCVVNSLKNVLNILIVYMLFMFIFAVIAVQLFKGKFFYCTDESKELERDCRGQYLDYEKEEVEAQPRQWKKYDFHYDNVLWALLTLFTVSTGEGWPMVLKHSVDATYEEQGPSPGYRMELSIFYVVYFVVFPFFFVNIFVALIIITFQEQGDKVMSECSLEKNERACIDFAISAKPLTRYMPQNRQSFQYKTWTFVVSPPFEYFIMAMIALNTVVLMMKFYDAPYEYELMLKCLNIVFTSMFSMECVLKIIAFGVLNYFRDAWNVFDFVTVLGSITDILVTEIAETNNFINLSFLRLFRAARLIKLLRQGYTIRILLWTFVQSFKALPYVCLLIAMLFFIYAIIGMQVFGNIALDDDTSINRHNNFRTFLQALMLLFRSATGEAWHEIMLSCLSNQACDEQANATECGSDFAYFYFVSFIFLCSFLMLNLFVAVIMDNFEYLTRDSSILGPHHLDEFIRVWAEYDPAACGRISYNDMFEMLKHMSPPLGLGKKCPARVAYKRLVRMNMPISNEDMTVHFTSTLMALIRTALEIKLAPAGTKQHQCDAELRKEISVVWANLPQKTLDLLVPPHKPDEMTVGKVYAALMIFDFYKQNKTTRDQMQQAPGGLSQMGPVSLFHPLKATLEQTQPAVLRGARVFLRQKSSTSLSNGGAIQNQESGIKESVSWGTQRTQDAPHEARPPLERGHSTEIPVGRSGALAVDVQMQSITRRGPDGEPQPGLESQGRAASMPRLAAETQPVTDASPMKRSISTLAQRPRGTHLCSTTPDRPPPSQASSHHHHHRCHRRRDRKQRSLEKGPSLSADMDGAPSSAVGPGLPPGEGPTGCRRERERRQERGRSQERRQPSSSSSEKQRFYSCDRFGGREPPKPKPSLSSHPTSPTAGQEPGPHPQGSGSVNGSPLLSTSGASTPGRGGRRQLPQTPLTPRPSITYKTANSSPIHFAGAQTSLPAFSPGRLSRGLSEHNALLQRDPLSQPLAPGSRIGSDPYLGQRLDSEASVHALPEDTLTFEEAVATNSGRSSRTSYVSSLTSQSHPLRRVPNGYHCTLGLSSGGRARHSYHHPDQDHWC
T1 sequence (P54289 25-956 partner limits assumed): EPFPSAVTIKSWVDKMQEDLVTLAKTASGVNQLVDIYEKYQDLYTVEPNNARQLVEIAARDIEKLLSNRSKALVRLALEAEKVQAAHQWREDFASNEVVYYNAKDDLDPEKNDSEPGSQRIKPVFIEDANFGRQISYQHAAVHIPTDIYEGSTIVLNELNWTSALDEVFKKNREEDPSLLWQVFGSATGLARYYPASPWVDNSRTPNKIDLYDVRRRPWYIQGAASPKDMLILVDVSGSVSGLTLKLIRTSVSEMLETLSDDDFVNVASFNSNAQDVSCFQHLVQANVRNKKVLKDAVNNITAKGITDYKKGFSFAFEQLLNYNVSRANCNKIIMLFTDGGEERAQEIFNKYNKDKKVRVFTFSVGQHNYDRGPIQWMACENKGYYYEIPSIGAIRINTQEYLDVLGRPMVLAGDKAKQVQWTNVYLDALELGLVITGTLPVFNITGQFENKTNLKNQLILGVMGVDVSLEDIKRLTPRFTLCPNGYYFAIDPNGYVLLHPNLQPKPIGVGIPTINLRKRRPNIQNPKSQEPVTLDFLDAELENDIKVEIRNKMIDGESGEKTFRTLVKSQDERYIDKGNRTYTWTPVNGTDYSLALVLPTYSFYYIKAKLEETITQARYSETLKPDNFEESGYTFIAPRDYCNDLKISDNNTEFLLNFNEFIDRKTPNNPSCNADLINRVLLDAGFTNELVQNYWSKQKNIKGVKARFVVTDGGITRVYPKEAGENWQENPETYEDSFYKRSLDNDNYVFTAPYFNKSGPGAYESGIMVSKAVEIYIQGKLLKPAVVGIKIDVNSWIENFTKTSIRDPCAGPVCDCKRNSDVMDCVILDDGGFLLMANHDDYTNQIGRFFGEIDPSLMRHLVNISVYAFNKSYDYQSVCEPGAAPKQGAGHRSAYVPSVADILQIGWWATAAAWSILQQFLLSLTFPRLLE
T1 sequence (P54289 957-1103 partner limits assumed): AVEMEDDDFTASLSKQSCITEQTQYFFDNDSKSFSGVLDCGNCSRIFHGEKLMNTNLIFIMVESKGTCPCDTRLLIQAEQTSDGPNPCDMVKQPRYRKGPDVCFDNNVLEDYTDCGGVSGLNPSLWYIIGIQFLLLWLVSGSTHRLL
T1 sequence (P54284 whole entry partner): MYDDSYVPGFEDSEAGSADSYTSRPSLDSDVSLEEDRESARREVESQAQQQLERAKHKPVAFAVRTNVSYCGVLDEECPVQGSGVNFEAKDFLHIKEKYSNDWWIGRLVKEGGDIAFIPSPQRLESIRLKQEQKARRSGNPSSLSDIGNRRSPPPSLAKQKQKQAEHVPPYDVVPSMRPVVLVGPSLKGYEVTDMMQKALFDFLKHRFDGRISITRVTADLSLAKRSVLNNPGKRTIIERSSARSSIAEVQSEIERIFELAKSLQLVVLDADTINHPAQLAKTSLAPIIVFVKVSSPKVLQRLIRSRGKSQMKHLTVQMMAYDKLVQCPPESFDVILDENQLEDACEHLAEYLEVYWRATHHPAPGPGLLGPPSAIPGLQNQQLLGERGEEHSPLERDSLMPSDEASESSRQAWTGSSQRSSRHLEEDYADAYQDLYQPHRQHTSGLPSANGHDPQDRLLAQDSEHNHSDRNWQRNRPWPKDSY

By IC50 is commonly meant the midpoint of a concentration-inhibition curve. On to `O=C(CNC1CCN(S(=O)(=O)c2cccc(C(F)(F)F)c2)CC1)Nc1ccc(F)cc1` [Compound 6, N-(4-Fluorophenyl)-2-[1-(3-trifluoromethyl-benzenesulfonyl)-piperidin-4-ylamino]acetamide], for which the values for the 50% inhibitory concentration (IC50) in experiment [1] and in experiment [2] were 460 nM and more than 20000 nM, respectively.

As to `O=C(CNC1CCN(S(=O)(=O)c2cccc(C(F)(F)F)c2)C1)Nc1ccc(F)cc1` (stereo not drawn) [Compound 10, N-(4-Fluorophenyl)-2-[1-(3-trifluoromethylbenzenesulfonyl)-pyrrolidin-3-ylamino]-acetamide], the values for the IC50 in experiment [1] and in experiment [2] were 470 nM and 5980 nM, respectively.

Regarding `O=C(CN(C1CC1)C1CCN(S(=O)(=O)c2cccc(C(F)(F)F)c2)CC1)Nc1ccc(F)cc1` [Compound 14, 2-{Cyclopropyl-[1-(3-trifluoromethylbenzenesulfonyl)-piperidin-4-yl]amino}-N-(4-fluorophenyl)acetamide], the half-inhibitory concentration (IC50) came to 790 nM in experiment [1] and 9330 nM in experiment [2].

Consider `O=C(CNC1CCN(S(=O)(=O)c2cccc(C(F)(F)F)c2)CC1)Nc1cc(C(F)(F)F)cc(C(F)(F)F)c1` [Compound 18, N-(3,5-Bis-(trifluoromethyl)phenyl)-2-[1-(3-trifluoromethyl-benzenesulfonyl)piperidin-4-ylamino]acetamide], for which the results for the IC50 in experiment [1] and in experiment [2] were 740 nM and more than 20000 nM, respectively.

For `O=C(CC(=O)NC1CCN(S(=O)(=O)c2cccc(C(F)(F)F)c2)CC1)Nc1ccc(F)cc1F` [Compound 23, N-(2,4-Difluorophenyl)-N′-[1-(3-trifluoromethylbenzenesulfonyl)-piperidin-4-yl]malonamide], in experiment [1], the half-maximal inhibitory concentration (IC50) worked out at 1290 nM.
